{"source": "patent EP0532716B1", "about": "“NEW […] WITH IMUNOMODULATING ACTIVITY AND PREPARATION THEREOF” (INSTITUTO […] T[…] NAVARRA, S.A., priority 1990, dated 1992)", "format_in_all_cases": "cell-based", "key": {"K562 target cells": {"system": "K562 target cells", "assay": "51Cr release assay: cytotoxic activity of peptide-activated lymphomononuclear cells against K562 target cells", "conditions": "lymphomononuclear cells from three healthy donors, cultured 4 days with 20 micrograms of peptide; Mean ± Standard error", "description": "(§1) Generation of cells with cytotoxic activity towards NK sensitive and NK resistant target cells.\n(§2) Peripheral blood mononuclear cells from healthy donors were obtained by leukapheresis, processing 5 to 10 liters of whole blood, using a Fenwall CS-3000 continuous-flow cell separator (Fenwall Laboratories, Deerfield, Illinois, USA). Vascular access was obtained with a double lumen central venous catheter.\n(§3) Separated lymphomononuclear cells are washed, counted and resuspended at a concentration of 2x10^6 per ml in RPMI-1640 medium containing 10 units of penicillin per ml, 200 µg of gentamycin per ml, 2mM of glutamine per ml and 2,5% of autologous serum in a PL-732 culture bag (Fenwall Laboratories, Deerfield, Illinois, USA).\n(§4) The incubation medium contained 20 micrograms of the peptide being studied. • Peptide 1 (Peptide of Example 1). • Peptide 2 (Peptide of Example 2). • Peptide 3 (Peptide of Example 3). • Peptide 4 (Peptide of Example 4). […]. In this pentadecapeptide Proline is absent. This control peptide has in common with the peptides object the invention only aa11=Asp).\n(§5) The cells are cultured for 4 days in a moist-air incubator at 37^ºC, 5% CO2 and 21% O2, One ml sample is drawn daily for microbiological studies.\n(§6) Changes in the cytotoxic ability of lymphomononuclear cells before and after peptide activation are measured with the ^51Cr release assay, using K562 and Daudi target cells (Table I). Phenotypic changes of lymphomononuclear cells before and after peptide activation are also assessed with fluorescein labeled […] antibodies and automated flow cytometry (Table II). It is well known that lymphomononuclear cells are very heterogeneous, but the presence of surface markers (CD) allows the description of their phenotypes (Weissman IL, Fathman CG, J Exp Med (1973) 137:504; Small M, Herzenberg CA, Weissman IL, Cell Immunol (1975) 15:109)."}, "Daudi target cells": {"system": "Daudi target cells", "assay": "51Cr release assay: cytotoxic activity of peptide-activated lymphomononuclear cells against Daudi target cells", "conditions": "lymphomononuclear cells from three healthy donors, cultured 4 days with 20 micrograms of peptide; Mean ± Standard error", "description": "as §1, §2, §3, §4, §5, §6"}, "lymphomononuclear cells": {"system": "lymphomononuclear cells", "assay": "Phenotypes of lymphomononuclear cells after peptide activation (fluorescein labeled antibodies, automated flow cytometry)", "conditions": "20 micrograms of peptide, 4 days, three healthy donors, Mean ± Standard error", "description": "as §2, §3\nThe incubation medium contained 20 micrograms of the peptide being studied. • Peptide 1 (Peptide of Example 1). • Peptide 2 (Peptide of Example 2). • Peptide 3 (Peptide of Example 3). • Peptide 4 (Peptide of Example 4). Control Peptide (Ala-Asp-Ala-Gln-Gln-Asn-Lys-Phe-Asn-Lys-Asp-Gln-Gln-Ser-Val. In this pentadecapeptide Proline is absent. This control peptide has in common with the peptides object the invention only aa11=Asp).\nas §5, §6"}}, "note": "Ends that are not written are not given here.", "data": [{"compound": "CC[C@H](C)[C@H](NC(=O)[C@H](CCC(=O)O)NC(=O)[C@H](CCCCN)NC(=O)[C@H](CO)NC(=O)[C@@H](NC(=O)[C@H](CO)NC(=O)[C@@H]1CCCN1C(=O)[C@H](CC(=O)O)NC(=O)[C@H](CC(=O)O)NC(=O)[C@H](CCCCN)NC(=O)[C@H](CC(C)C)NC(=O)[C@H](CO)NC(=O)[C@H](CCC(N)=O)NC(=O)[C@@H](NC(=O)[C@H](Cc1ccccc1)NC(=O)CNC(=O)[C@@H](N)CC(N)=O)[C@@H](C)CC)C(C)C)C(=O)N[C@@H](CC(C)C)C(=O)N[C@@H](C)C(=O)N[C@@H](CCC(=O)O)C(=O)N[C@@H](C)C(=O)N[C@@H](CCCCN)C(=O)N[C@H](C(=O)O)C(C)C", "note": "[Peptide 4]", "values": [{"measurement": "CYTOTOXIC ACTIVITY (%) K562", "setting": "K562 target cells", "result": "58 ± 7", "unit": "%"}, {"measurement": "CYTOTOXIC ACTIVITY (%) DAUDI", "setting": "Daudi target cells", "result": "56 ± 6", "unit": "%"}]}, {"compound": "NVLGAPKKLNESQAV [Peptide 1]", "values": [{"measurement": "CYTOTOXIC ACTIVITY (%) K562", "setting": "K562 target cells", "result": "63 ± 8", "unit": "%"}, {"measurement": "CYTOTOXIC ACTIVITY (%) DAUDI", "setting": "Daudi target cells", "result": "68 ± 6", "unit": "%"}, {"measurement": "CELLS EXPRESSING SURFACE MARKERS (%) CD3", "setting": "lymphomononuclear cells", "result": "60 ± 1", "unit": "%"}, {"measurement": "CELLS EXPRESSING SURFACE MARKERS (%) CD8", "setting": "lymphomononuclear cells", "result": "17 ± 1", "unit": "%"}, {"measurement": "CELLS EXPRESSING SURFACE MARKERS (%) CD11b", "setting": "lymphomononuclear cells", "result": "23 ± 5", "unit": "%"}, {"measurement": "CELLS EXPRESSING SURFACE MARKERS (%) CD14", "setting": "lymphomononuclear cells", "result": "17 ± 4", "unit": "%"}, {"measurement": "CELLS EXPRESSING SURFACE MARKERS (%) CD16", "setting": "lymphomononuclear cells", "result": "22 ± 7", "unit": "%"}, {"measurement": "CELLS EXPRESSING SURFACE MARKERS (%) CD56", "setting": "lymphomononuclear cells", "result": "18 ± 6", "unit": "%"}]}, {"compound": "CC(C)[C@H](NC(=O)[C@H](CO)NC(=O)[C@H](CCC(N)=O)NC(=O)[C@H](CCC(N)=O)NC(=O)[C@H](CC(=O)O)NC(=O)[C@H](CCCCN)NC(=O)[C@H](CC(N)=O)NC(=O)[C@H](Cc1ccccc1)NC(=O)[C@H](CCCCN)NC(=O)[C@H](CC(N)=O)NC(=O)[C@H](CCC(N)=O)NC(=O)[C@H](CCC(N)=O)NC(=O)[C@H](C)NC(=O)[C@H](CC(=O)O)NC(=O)[C@H](C)N)C(=O)O", "note": "[Control Peptide, Ala-Asp-Ala-Gln-Gln-Asn-Lys-Phe-Asn-Lys-Asp-Gln-Gln-Ser-Val, reference compound]", "values": [{"measurement": "CYTOTOXIC ACTIVITY (%) K562", "setting": "K562 target cells", "result": "12 ± 8", "unit": "%"}, {"measurement": "CYTOTOXIC ACTIVITY (%) DAUDI", "setting": "Daudi target cells", "result": "10 ± 4", "unit": "%"}]}, {"compound": "CC[C@H](C)[C@H](NC(=O)[C@H](CCC(=O)O)NC(=O)[C@H](CCCCN)NC(=O)[C@H](CO)NC(=O)[C@@H](NC(=O)[C@H](CO)NC(=O)[C@@H]1CCCN1C(=O)[C@H](CC(=O)O)NC(=O)[C@H](CC(=O)O)NC(=O)[C@H](CCCCN)NC(=O)[C@H](CC(C)C)NC(=O)[C@@H](N)CO)C(C)C)C(=O)N[C@@H](CC(C)C)C(=O)N[C@@H](C)C(=O)N[C@H](C(=O)O)C(C)C", "note": "[Peptide 2]", "values": [{"measurement": "CYTOTOXIC ACTIVITY (%) K562", "setting": "K562 target cells", "result": "62 ± 7", "unit": "%"}, {"measurement": "CYTOTOXIC ACTIVITY (%) DAUDI", "setting": "Daudi target cells", "result": "62 ± 8", "unit": "%"}, {"measurement": "CELLS EXPRESSING SURFACE MARKERS (%) CD3", "setting": "lymphomononuclear cells", "result": "58 ± 2", "unit": "%"}, {"measurement": "CELLS EXPRESSING SURFACE MARKERS (%) CD8", "setting": "lymphomononuclear cells", "result": "18 ± 2", "unit": "%"}, {"measurement": "CELLS EXPRESSING SURFACE MARKERS (%) CD11b", "setting": "lymphomononuclear cells", "result": "24 ± 3", "unit": "%"}, {"measurement": "CELLS EXPRESSING SURFACE MARKERS (%) CD14", "setting": "lymphomononuclear cells", "result": "18 ± 3", "unit": "%"}, {"measurement": "CELLS EXPRESSING SURFACE MARKERS (%) CD16", "setting": "lymphomononuclear cells", "result": "22 ± 6", "unit": "%"}, {"measurement": "CELLS EXPRESSING SURFACE MARKERS (%) CD56", "setting": "lymphomononuclear cells", "result": "17 ± 5", "unit": "%"}]}, {"compound": "EILNMPNLNEEQRNV [Peptide 3]", "values": [{"measurement": "CYTOTOXIC ACTIVITY (%) K562", "setting": "K562 target cells", "result": "59 ± 9", "unit": "%"}, {"measurement": "CYTOTOXIC ACTIVITY (%) DAUDI", "setting": "Daudi target cells", "result": "58 ± 9", "unit": "%"}, {"measurement": "CELLS EXPRESSING SURFACE MARKERS (%) CD3", "setting": "lymphomononuclear cells", "result": "59 ± 3", "unit": "%"}, {"measurement": "CELLS EXPRESSING SURFACE MARKERS (%) CD8", "setting": "lymphomononuclear cells", "result": "17 ± 2", "unit": "%"}, {"measurement": "CELLS EXPRESSING SURFACE MARKERS (%) CD11b", "setting": "lymphomononuclear cells", "result": "23 ± 4", "unit": "%"}, {"measurement": "CELLS EXPRESSING SURFACE MARKERS (%) CD14", "setting": "lymphomononuclear cells", "result": "18 ± 3", "unit": "%"}, {"measurement": "CELLS EXPRESSING SURFACE MARKERS (%) CD16", "setting": "lymphomononuclear cells", "result": "21 ± 5", "unit": "%"}, {"measurement": "CELLS EXPRESSING SURFACE MARKERS (%) CD56", "setting": "lymphomononuclear cells", "result": "18 ± 5", "unit": "%"}]}]}
